Measured values as given in patent US8883792B2, “Substituted isoquinoline derivative” (D. Western Therapeutics Institute, Inc., priority 2010, dated 2014).
Where a name gives a salt, the structure may show the parent alone.

Tested on: rabbits (New Zealand White)
Experiment: Ocular hypotensive effect in rabbits
Type: in vivo, rabbit
Settings: male New Zealand White rabbits, 0.04 mL eye drop, concentration of 1% (w/v) or lower, maximum ocular hypotensive rate vs vehicle-treated contralateral eye
Procedure: The compound of the present invention was administered to rabbits (New Zealand White, sex: male, 3 to 6 per group) and evaluated for its ocular hypotensive effect.
Each test compound was dissolved in a vehicle 1 (1.04 g of sodium dihydrogen phosphate dihydrate and 0.5 g of sodium chloride dissolved in purified water and then adjusted to pH 7.0 with sodium hydroxide to make the total amount to 100 mL) or a vehicle 2 (2% (w/v) aqueous boric acid solution) to prepare a test compound solution with a predetermined concentration.
The intraocular pressures of the rabbits were measured using Tiolat TonoVet handheld tonometer immediately before administration of test compound. The test compound solution and the vehicle were dropped at a volume of 0.04 mL to one eye and the contralateral eye, respectively, and the intraocular pressures were measured over time in the same way as above. The rate of the intraocular pressure of the eye receiving the test compound solution to that of the eye receiving the vehicle was calculated as an ocular hypotensive rate.

Row | Compound | Ocular hypotensive activity
1 | C[C@H](CNCCC#N)NS(=O)(=O)c1ccc2cnccc2c1.Cl [Example 73, (R)—N-{1-(2-cyanoethylamino)propan-2-yl}isoquinoline-6-sulfonamide hydrochloride] | ++ (maximum ocular hypotensive rate of 15% or more)
2 | C[C@H](CNCCc1cc2ccccc2[nH]1)NS(=O)(=O)c1ccc2cnccc2c1.Cl [Example 74, (R)—N-[1-{2-(1H-indol-2-yl)ethylamino}propan-2-yl]isoquinoline-6-sulfonamide hydrochloride] | ++ (maximum ocular hypotensive rate of 15% or more)
3 | C[C@H](CNCCc1cc2ccccc2o1)NS(=O)(=O)c1ccc2cnccc2c1 [Example 75, (R)—N-[1-{(2-(benzofuran-2-yl)ethylamino}propan-2-yl]isoquinoline-6-sulfonamidedihydrochloride] | ++ (maximum ocular hypotensive rate of 15% or more)
4 | C[C@H](CNCCc1ccc(F)cc1)NS(=O)(=O)c1cc2ccncc2cc1Br.Cl [Example 76, (R)-7-bromo-N-{1-(4-fluorophenethylamino)propan-2-yl}-isoquinoline-6-sulfonamide hydrochloride] | ++ (maximum ocular hypotensive rate of 15% or more)
5 | C[C@H](CNCCc1ccc(F)cc1)NS(=O)(=O)c1ccc2cnccc2c1Br.Cl [Example 77, (R)-5-bromo-N-{1-(4-fluorophenethylamino)propan-2-yl}-isoquinoline-6-sulfonamide hydrochloride] | + (maximum ocular hypotensive rate of 5% or more and less than 15%)
6 | C=C(C)CNC[C@@H](C)NS(=O)(=O)c1ccc2cnccc2c1.Cl [Example 78, (R)—N-{1-(2-methylallylamino)propan-2-yl}isoquinoline-6-sulfonamide hydrochloride] | ++ (maximum ocular hypotensive rate of 15% or more)
7 | Cc1ncsc1CCNC[C@@H](C)NS(=O)(=O)c1ccc2cnccc2c1 [Example 79, (R)—N-[1-{2-(4-methylthiazol-5-yl)ethylamino}propan-2-yl]isoquinoline-6-sulfonamide dihydrochloride] | ++ (maximum ocular hypotensive rate of 15% or more)
8 | C[C@H](CNCCCc1c[nH]c2ccccc12)NS(=O)(=O)c1ccc2cnccc2c1 [Example 80, (R)—N-[1-{3-(1H-indol-3-yl)propylamino}propan-2-yl]isoquinoline-6-sulfonamide dihydrochloride] | ++ (maximum ocular hypotensive rate of 15% or more)
9 | C[C@H](CNCCc1ccccn1)NS(=O)(=O)c1ccc2cnccc2c1.Cl [Example 81, (R)—N-[1-{2-(pyridin-2-yl)ethylamino}propan-2-yl]isoquinoline-6-sulfonamide hydrochloride] | ++ (maximum ocular hypotensive rate of 15% or more)
10 | C[C@H](CNCC(C)(O)c1ccccc1)NS(=O)(=O)c1ccc2cnccc2c1.Cl (stereo partly drawn) [Example 85, N-{(2R)-1-(2-hydroxy-2-phenylpropylamino)propan-2-yl}isoquinoline-6-sulfonamide hydrochloride] | ++ (maximum ocular hypotensive rate of 15% or more)
11 | C[C@H](CNCC(O)c1cccnc1)NS(=O)(=O)c1ccc2cnccc2c1 (stereo partly drawn) [Example 88, N-[(2R)-1-{2-hydroxy-2-(pyridin-3-yl)ethylamino}propan-2-yl]isoquinoline-6-sulfonamide dihydrochloride] | + (maximum ocular hypotensive rate of 5% or more and less than 15%)
12 | C[C@H](CNCC(O)c1cccc(Cl)c1)NS(=O)(=O)c1ccc2cnccc2c1 (stereo partly drawn) [Example 91, N-[(2R)-1-{2-(3-chlorophenyl)-2-hydroxyethylamino}propan-2-yl]isoquinoline-6-sulfonamide dihydrochloride] | ++ (maximum ocular hypotensive rate of 15% or more)
13 | C[C@H](CNCCc1ccc(-c2ccccc2)cc1)NS(=O)(=O)c1ccc2cnccc2c1 [Example 92, (R)—N-[1-{2-(biphenyl-4-yl)ethylamino}propan-2-yl]isoquinoline-6-sulfonamide dihydrochloride] | ++ (maximum ocular hypotensive rate of 15% or more)
14 | C[C@H](CNCCc1ccc(-c2ccncc2)cc1)NS(=O)(=O)c1ccc2cnccc2c1 [Example 93, (R)—N-[1-{4-(pyridin-4-yl)phenethylamino}propan-2-yl]isoquinoline-6-sulfonamide trihydrochloride] | ++ (maximum ocular hypotensive rate of 15% or more)
15 | C[C@H](CNCCc1c[nH]nn1)NS(=O)(=O)c1ccc2cnccc2c1.Cl [Example 94, (R)—N-[1-{2-(1H-1,2,3-triazol-4-yl)ethylamino}propan-2-yl]isoquinoline-6-sulfonamide hydrochloride] | ++ (maximum ocular hypotensive rate of 15% or more)
16 | C[C@H](CNCCc1nnn[nH]1)NS(=O)(=O)c1ccc2cnccc2c1 [Example 95, (R)—N-[1-{2-(1H-tetrazol-5-yl)ethylamino}propan-2-yl]isoquinoline-6-sulfonamide dihydrochloride] | + (maximum ocular hypotensive rate of 5% or more and less than 15%)
17 | CCCCNC[C@@H](C)N(CC)S(=O)(=O)c1ccc2cnccc2c1.Cl [Example 96, (R)—N-[1-(butylamino)propan-2-yl]-N-ethylisoquinoline-6-sulfonamide hydrochloride] | ++ (maximum ocular hypotensive rate of 15% or more)
18 | C[C@H](CNCCc1ccccc1)N(CCO)S(=O)(=O)c1ccc2cnccc2c1 [Example 97, (R)—N-(2-hydroxyethyl)-N-{1-(phenethylamino)propan-2-yl}isoquinoline-6-sulfonamide dihydrochloride] | ++ (maximum ocular hypotensive rate of 15% or more)
19 | C[C@H](CN(C)CCc1ccccc1)NS(=O)(=O)c1ccc2cnccc2c1 [Example 99, (R)—N-[1-{methyl(phenethyl)amino}propan-2-yl]isoquinoline-6-sulfonamide dihydrochloride] | ++ (maximum ocular hypotensive rate of 15% or more)
20 | C[C@H](CN(CCc1ccccc1)C(=O)CN)NS(=O)(=O)c1ccc2cnccc2c1.Cl [Example 100, (R)-2-amino-N-[2-(isoquinoline-6-sulfonamido)propyl]-N-phenylethylacetamide hydrochloride] | ++ (maximum ocular hypotensive rate of 15% or more)
21 | C[C@H](CNC(=O)Cc1ccccc1)NS(=O)(=O)c1ccc2cnccc2c1.Cl [Example 103, (R)—N-{2-(isoquinoline-6-sulfonamido)propyl}-2-phenylacetamide hydrochloride] | ++ (maximum ocular hypotensive rate of 15% or more)
22 | C[C@H](CNCC(=O)c1ccccc1)NS(=O)(=O)c1ccc2cnccc2c1 [Example 104, (R)—N-{1-(2-oxo-2-phenylethylamino)propan-2-yl}isoquinoline-6-sulfonamide dihydrochloride] | ++ (maximum ocular hypotensive rate of 15% or more)
23 | C[C@H](CNCC(O)COc1ccccc1)NS(=O)(=O)c1ccc2cnccc2c1 (stereo partly drawn) [Example 108, N-{(2R)-1-(2-hydroxy-3-phenoxypropylamino)propan-2-yl}isoquinoline-6-sulfonamide dihydrochloride] | ++ (maximum ocular hypotensive rate of 15% or more)
24 | C[C@H](CNCCc1ccccc1)NS(=O)(=O)c1ccc2c(N)nccc2c1.Cl [Example 109, (R)-1-amino-N-{1-(phenethylamino)propan-2-yl}isoquinoline-6-sulfonamide hydrochloride] | + (maximum ocular hypotensive rate of 5% or more and less than 15%)
25 | C[C@H](CNCCc1ccccc1)NS(=O)(=O)c1ccc2c(O)nccc2c1.Cl [Example 110, (R)—N-{1-(phenethylamino)propan-2-yl}-1-hydroxyisoquinoline-6-sulfonamide hydrochloride] | ++ (maximum ocular hypotensive rate of 15% or more)
26 | C[C@H](CNCCc1ccccc1)NS(=O)(=O)c1ccc2c(SCCN)nccc2c1 [Example 111, (R)-1-(2-aminoethylthio)-N-{1-(phenethylamino)propan-2-yl}isoquinoline-6-sulfonamide trihydrochloride] | + (maximum ocular hypotensive rate of 5% or more and less than 15%)
27 | Cc1cncc2ccc(S(=O)(=O)N[C@H](C)CNCCc3ccccc3)cc12.Cl [Example 112, (R)—N-{1-(phenethylamino)propan-2-yl}-4-methyl-isoquinoline-6-sulfonamide hydrochloride] | ++ (maximum ocular hypotensive rate of 15% or more)
28 | Cc1cncc2ccc(S(=O)(=O)N[C@H](C)CNCCc3ccc(F)cc3)cc12.Cl [Example 113, (R)—N-{1-(4-fluorophenethylamino)propan-2-yl}-4-methyl-isoquinoline-6-sulfonamide hydrochloride] | ++ (maximum ocular hypotensive rate of 15% or more)
29 | C[C@H](CNCCc1ccccc1)NS(=O)(=O)c1ccc2cncc(-c3ccsc3)c2c1 [Example 115, (R)—N-{1-(phenethylamino)propan-2-yl}-4-(thiophen-3-yl) isoquinoline-6-sulfonamide dihydrochloride] | ++ (maximum ocular hypotensive rate of 15% or more)
30 | N[C@H](CNS(=O)(=O)c1ccc2cnccc2c1)Cc1ccccc1 [Example 116, (S)—N-(2-amino-3-phenylpropyl)isoquinoline-6-sulfonamide dihydrochloride] | + (maximum ocular hypotensive rate of 5% or more and less than 15%)
